The record followed here is patent publication EP0934940A1, “CYTOKINE PRODUCTION INHIBITORS, TRIAZEPINE COMPOUNDS, AND INTERMEDIATES THEREOF” (Japan Tobacco Inc., priority 1996, dated 1997).

Structures can show the parent of a compound that is named as a salt. Where two headings read alike, the source gives them in different places. A value given as a limit tells only on which side of the number the result lay.

The test system of assay [1] is TNF-α. Briefly: Inhibitory activity on TNF-α production from LPS-stimulated human PBMC (ELISA). Format: cell-based. How it is done: (§1) Inhibitory activity on cytokine production from human PBMC (peripheral blood mononuclear cell)
(§2) PBMC fractions were isolated from human blood using a mono-poly resolving medium. The cells (PBMC) were cultured in 5% FCS (fetal calf serum)/RPMI1640 medium. Thereafter, the test compound was added to the final concentration of 0.001-10 µM, and LPS (lipopolysaccharide) was added to the final concentration of 10 µg/ml. After incubatioin for 24 hours, the supernatant was separated and freeze stocked at -80°C.
(§3) On the day of experiment, the supernatant was thawed and the production amount of cytokine was measured by ELISA. IL-6 was assayed using [(h)IL-6] human, ELISA system (Amersham); TNF-α was assayed using [(h)TNF-α] human, ELISA system (Amersham); GM-CSF was assayed using human GM-CSF immunoassay (R&D systems); and IL-8 was assayed using human IL-8 immunoassay (R&D systems). The determination method followed the method of each kit. The results are expressed in IC50.
A general note: In an ELISA, binding on a coated surface is turned into a signal by an enzyme label.

Assay [2] concerns IL-6. Briefly: Inhibitory activity on in vivo IL-6 production by LPS stimulation. Particulars: male ICR mice, LPS stimulation i.v., test compound 10 mg/kg p.o. at the same time, blood two hours later, relative to 0.5% CMC-Na group; for inhibition in vivo at 10 mg/kg: Mus musculus, po, 2 h, read-out: Inhibtion (%) of plasma IL-6 production (10 mg/kg, p.o.). How it is done: Inhibitory activity on in vivo IL-6 production by LPS stimulation
LFS (0.3 mg/kg) was intravenously administered to male ICR mice (6-week-old) fasted for 24 hours. At the same time, the test compound suspended in 0.5% CMC-Na ( carboxymethylcellulose sodium) was orally administered at the dose of 10 mg/kg.
Two hours later, blood was taken from eyegrounds. The blood was centrifuged, and the plasma fraction was diluted and quantitatively assayed for IL-6 in blood by ELISA (Endogen EM-IL6). The inhibitory percentage of the group administered with the test compound was expressed relative to the amount of IL-6 in blood of the cup administered with 0.5% CMC-Na.

Assay [3] relates to IL-6. Briefly: Inhibitory activity on IL-6 production from LPS-stimulated human PBMC (ELISA). Format: cell-based. Particulars: 24 h. How it is done:
as §1, §2, §3

In a further assay the test system is IL-8. Description: Inhibitory activity on IL-8 production from LPS-stimulated human PBMC (immunoassay). It is filed as cell-based. Particulars: 24 h, read-out: IL-8 IC50 (µM). Here is the method: as §1, §2, §3
The next assay has as its system GM-CSF. Description: Inhibitory activity on GM-CSF production from LPS-stimulated human PBMC (immunoassay). Particulars: 24 h, read-out: GM-CSF IC50 (µM). It is filed as cell-based. How it is done:
as §1, §2, §3

Assay [4] has as its system TNF-α. Description: Inhibitory activity on in vivo TNF-α production by LPS stimulation. Particulars: male ICR mice, 30 mg/kg p.o. 30 minutes before LPS 0.3 mg/kg i.v., blood one hour after LPS, relative to 0.5% CMC-Na group. How it is done: Inhibitory activity on in vivo TNF-α production by LPS stimulation
The test compound suspended in 0.5% CMC-Na (carboxymethylcellulose sodium) was orally administered at the dose of 30 mg/kg to male ICR mice (6-week-old) fasted for 24 hours. At 30 minutes after oral administration, LPS was intravenously administered at the dose of 0.3 mg/kg. At one hour after LSP administration, blood was taken from the heart. The TNF-α in plasma was assayed by ELISA (Genzyme). The suppression of TNF-α production of the group administered with test compounds was calculated by the following formula. Inhibition (%) =[1-(test compound administered group)/(0.5% CMC-Na administered group)]× 100 [formula]

The next assay relates to IL-2. Description: Inhibitory activity on IL-2 production in concanavalin A-stimulated spleen cells. Format: cell-based, Balb/c mice. Particulars: Balb/c mouse spleen cells, 5 µg/ml concanavalin A, 24 hours, EIA. How it is done:
(§4) Inhibitory activity on IL-2 and IFNγ production
(§5) The spleen cells obtained from 9-week-old Balb/c mice (Charles River Japan, Inc.) was suspended in RPMI-1640 medium supplemented with 10% FCS, at 4 × 10^6 cells/ml. The suspended cells were incubated in a 96 well plate (0.25 ml per well) in the presence of 5 µg/ml concanavalin A. The cells were cultured with or without addition of various concentrations of test compounds. After 24 hours' incubation, the culture broth was taken for assay of cytokine and preserved at -80°C. The concentrations of IL-2 and IFNγ in the culture broth were measured using an EIA kit (perSeptive Diagnostic) according to the attached protocol. The results are expressed in IC50.

In the next assay the test system is IFNγ. Briefly: Inhibitory activity on IFNγ production in concanavalin A-stimulated spleen cells. Format: cell-based, Balb/c mice. Particulars: Balb/c mouse spleen cells, 5 µg/ml concanavalin A, 24 hours, EIA. Here is the method:
as §4, §5

In the next assay the test system is Adjuvant arthritis (AIA). Description: Effects on rat adjuvant arthritis (hind limb edema). Format: in vivo. Particulars: Lewis rats, 10 mg/kg p.o. once a day for 28 days from day 0, hind limb edema at day 28, mean±standard error, **p < 0.01. How it is done: Effects on rat adjuvant arthritis
Lewis rats (5-week-old, Charles River Japan, Inc.) were used for the test. Adjuvant arthritis (AIA) was induced by injection (0.5 mg) of Mycobacterium butyricum (Difco) suspended in paraffin oil, from the root of the tail at day 0. The volume of the hind limb was measured with time after the injection of adjuvant. The test compound was suspended in 0.5% HPMC (hydroxypropylmethycellulose) and orally administered at the dose of 10 mg/kg once a day for 28 days from day 0. The suppression of edema of hind limb at day 28 was calculated as follows. Suppression (%) = 100 ×((AIA treated group-AIA control group))/((normal control group-AIA control group)) [formula]
The results are shown in mean±standard error and tested by Student-test. The result was significant when p value was less than 0.05.

Setting [5] is: Homo sapiens, PBMC, 24 h, human PBMC, LPS 10 µg/ml, incubation 24 hours, supernatant ELISA, read-out: TNF-α IC50.
Where [6] appears, read: human PBMC, LPS 10 µg/ml, incubation 24 hours, supernatant ELISA, read-out: IL-6 IC50.

Consider `Cc1nnc2n1-c1ccccc1C(c1ccc(Cl)cc1)=NN2Cc1ccc[n+]([O-])c1` [Example 1, 3-[6-(4-Chlorophenyl)-1-methyl-4H-2,3,4,5,10b-pentaazabenz[e]azulen-4-ylmethyl]pyridine-1-oxide], for which the IC50 with TNF-α [1] (setting [5]) turned out to be 0.1 µM; in the assay on TNF-α [1] (human PBMC, LPS 10 µg/ml, incubation 24 hours, supernatant ELISA, read-out: TNF-α IC50), 0.13 µM. In addition, in the assay on IL-6 [2], the inhibition in vivo at 10 mg/kg stood at 73%.
As for `Cc1cc2c(s1)-n1c(C)nnc1N(Cc1ccc(-c3nnnn3C)cc1)N=C2c1ccccc1` [Example 16], the IC50 in the assay on IL-6 [3] (read-out: IL-6 IC50 (µM), human PBMC, LPS 10 µg/ml, incubation 24 hours, supernatant ELISA) is 0.3 µM; in the assay on TNF-α [1] (Homo sapiens, PBMC, 24 h, read-out: TNF-α IC50 (µM), human PBMC, LPS 10 µg/ml, incubation 24 hours, supernatant ELISA), 0.06 µM. For the same molecule, the “Inhibtion (%) of plasma IL-6 production (10 mg/kg, p.o.)” value (“Inhibtion (%) … (10 mg/kg, p.o.)” below) in the assay with IL-6 [2] was 84%.
Consider `Cc1ccc(C2=NN(Cc3ccncc3)c3nnc(C)n3-c3ccccc32)cc1` [Synthetic Example 103, 1-Methyl-6-(4-methylphenyl)-4-(pyridin-4-ylmethyl)-4H-2,3,4,5,10b-pentaazabenz[e]azulene], for which the inhibition in vivo at 10 mg/kg in the assay with IL-6 [2] came to 75%.
With `Cc1ccc2c(c1)-n1c(C)nnc1N(Cc1ccc(C#N)cc1)N=C2c1ccc(Cl)cc1` [Synthetic Example 108, 6-(4-Chlorophenyl)-4-(4-cyanbenzyl)-1,9-dimethyl-4H-2,3,4,5,10b-pentaazabenz[e]azulene], the “Inhibtion (%) … (10 mg/kg, p.o.)” value with IL-6 [2] is 70%.
For the molecule `Cc1nnc2n1-c1ccccc1C(c1ccc(Br)cc1)=NN2Cc1ccc(Br)cc1` [Synthetic Example 109, 4-(4-Bromobenzyl)-6-(4-bromophenyl)-1-methyl-4H-2,3,4,5,10b-pentaaabenz[e]azulene], the “Inhibtion (%) … (10 mg/kg, p.o.)” value with IL-6 [2] stood at 51%.
In the case of `Cc1nnc2n1-c1ccccc1C(c1ccccc1)=NN2Cc1ccc(C#N)cc1` [Synthetic Example 111, 4-(4-Cyanobenzyl)-1-methyl-6-phenyl-4H-2,3,4,5,10b-pentaazabenz[e]azulene], the inhibition in vivo at 10 mg/kg in the assay with IL-6 [2] stood at 62%.
With `Cc1sc2c(c1C)C(c1ccc(Cl)cc1)=NN(Cc1ccc(C#N)cc1)c1nnc(C)n1-2` [Synthetic Example 115, 4-(4-Chlorophenyl)-6-(4-cyanobenzyl)-2,3,9-trimethyl-6H-5,6,7,8,9a-pentaazathieno[2,3-e]azulene], the inhibition in vivo at 10 mg/kg in the assay with IL-6 [2] was 75%.
With `CCc1cc2c(s1)-n1c(C)nnc1N(Cc1ccncc1)N=C2c1ccc(Cl)cc1` [Synthetic Example 118, 4-(4-Chlorophenyl)-2-ethyl-9-methyl-6-(pyridin-4-ylmethyl)-6H-5,6,7,8,9a-pentaazathieno[2,3-e]azulene], in the assay on IL-6 [2], the inhibition in vivo at 10 mg/kg came out at 75%.
As to `Cc1cc2c(s1)-n1c(C)nnc1N(Cc1ccncc1)N=C2c1ccccc1` [Synthetic Example 121, 2,9-Dimethyl-4-phenyl-6-(pyridin-4-ylmethyl)-6H-5,6,7,8,9a-pentaazathieno[2,3-e]azulene], the inhibition in vivo at 10 mg/kg in the assay with IL-6 [2] was 91%.
As for `Cc1cc2c(s1)-n1c(C)nnc1N(Cc1ccc(C#N)cc1)N=C2c1ccccc1` [Synthetic Example 122, 6-(4-Cyanobenzyl)-2,9-dimethyl-4-phenyl-6H-5,6,7,8,9a-pentaazathieno[2,3-e]azulene], in the assay with IL-6 [2], the inhibition in vivo at 10 mg/kg stood at 71%.
On to `Cc1sc2c(c1C)C(c1ccccc1)=NN(Cc1ccncc1)c1nnc(C)n1-2` [Synthetic Example 125, 2,3,9-Trimethyl-4-phenyl-6-(pyridin-4-ylmethyl)-6H-5,6,7,8,9a-pentaazathieno[2,3-e]azulene], for which the inhibition in vivo at 10 mg/kg in the assay with IL-6 [2] turned out to be 84%.
For the molecule `CCc1cc2c(s1)-n1c(C)nnc1N(Cc1ccncc1)N=C2c1ccccc1` [Synthetic Example 127, 2-Ethyl-9-methyl-4-phenyl-6-(pypidin-4-ylmethyl)-6H-5,6,7,8,9a-pentaazathieno[2,3-e]azulene], the “Inhibtion (%) … (10 mg/kg, p.o.)” value in the assay with IL-6 [2] was found to be 83%.
In the case of `Cc1nnc2n1-c1ccccc1C(c1ccc(N)cc1)=NN2Cc1ccc(Cl)cc1` [Synthetic Example 191, 4-[4-(4-Chlorobenzyl)-1-methyl-4H-2,3,4,5,10b-pentaazabenz[e]azulen-6-yl]phenylamine hydrochloride], the IC50 in the assay on IL-6 [3] (setting [6]) and in the assay on TNF-α [1] (setting [5]) was 0.001 µM in each case. The inhibition in vivo at 10 mg/kg with IL-6 [2] was 62%.
For the molecule `Cc1nnc2n1-c1ccccc1C(c1ccc(N)cc1)=NN2Cc1ccc(C#N)cc1` [Synthetic Example 192, 4-[4-(4-Cyanobenzyl)-1-methyl-4H-2,3,4,5,10b-pentaazabenz[e]azulen-6-yl]phenylamine hydrochloride], the IC50 came out at 0.03 µM in the assay with IL-6 [3] (setting [6]) and 0.02 µM with TNF-α [1] (setting [5]). Besides, the inhibition in vivo at 10 mg/kg in the assay on IL-6 [2] is 67%.
In the case of `Cc1nnc2n1-c1ccccc1C(c1ccc(N)cc1)=NN2Cc1ccc([N+](=O)[O-])cc1` [Synthetic Example 193, 4-[1-Methyl-4-(4-nitrobenzyl)-4H-2,3,4,5,10b-pentaazabenz[e]azulen-6-yl]phenylamine hydrochloride], the IC50 in the assay on IL-6 [3] (setting [6]) is under 0.001 µM; in the assay on TNF-α [1] (setting [5]) it was 0.001 µM. In addition, the inhibition in vivo at 10 mg/kg in the assay on IL-6 [2] came to 67%.
Consider `Cc1nnc2n1-c1ccccc1C(c1ccc(Cl)cc1)=NN2Cc1cccnc1` [compound 19], for which the IC50 with IL-8 was 0.26 µM; in the assay with GM-CSF, 0.05 µM; in the assay on IL-2 it was 240 nM; in the assay with IFNγ, 120 nM. Also, the “Inhibition (%) of plasma TNF-α production (30 mg/kg, p.o.)” value with TNF-α [4] came to 51%. For the same molecule, the “Suppression (%) of edema” value in the assay on Adjuvant arthritis (AIA) was 72.7±3.3** %.
